Publication PMC7238409, “Interactions of TiO2 Nanoparticles with Ingredients from Modern Lifestyle Products and Their Effects on Human Skin Cells” (Chemical Research in Toxicology, 2020)
Where two headings read alike, the source gives them in different places.

Legend:
nNHDF cells [1] = assay: Neutral Red Uptake (NRU) assay, lysosomal integrity; type: cell-based, human; conditions: 24 h, absence of TiO2 NPs (control)
nNHDF cells [2] = assay: Annexin V/Propidiumiodide apoptosis/necrosis assay, flow cytometry; type: cell-based, human
[3] = Nanoparticle tracking analysis (NTA) of TiO2 NPs after incubation with MLP ingredients; type: physicochemical; conditions: 0.1 mg/mL TiO2 NPs + 0.1 mg/mL MLP ingredient, 60 min, diluted 1:100 in water
nNHDF cells [4] = assay: Glutathione assay (total glutathione and GSSG, Tietze method); type: cell-based, human; conditions: 4 h, concentrations of Table 1, absence of TiO2 NPs
Procedure: Intracellular total and oxidized glutathione was determined by the earlier published Tietze method,[33] which was adapted to microtiter plates. Briefly, cells were lysed in 200 μL of 1% (w/v) sulfosalicylic acid (SSA), and 10 μL of the lysates were diluted with 90 μL of H2O and subsequently mixed with 100 μL of a reaction mixture containing 0.3 mM DTNB, 0.4 mM NADPH, 1 mM EDTA, and 1 U/mL glutathione reductase in 0.1 mM sodium phosphate buffer, pH = 7.5. The absorbance at 405 nm was continuously recorded over a time frame of 10 min. Glutathione concentrations were determined by comparing the increase in absorption of samples with the increase in absorption of standards with known concentrations. In order to determine the amount of oxidized glutathione (glutathione disulfide, GSSG), the samples were pretreated with 2-vinylpyridine (2-VP). The sample (cell lysate in SSA, 130 μL) was mixed with 5 μL of 2-VP, and the pH was subsequently adjusted to 6 using 0.2 M Tris-solution. Samples were incubated at room temperature for 60 min, and then 10 μL of the samples were assayed for glutathione, as described above.
Cellular protein contents were determined after lysis of the cells in 200 μL of 0.5 M NaOH according to the Lowry method[34] using bovine serum albumin as a standard.

nNHDF cells [5] = assay: Reactive oxygen species assay (DCFDA) with side scatter signal (SSC), flow cytometry; conditions: concentrations of Table 1, with or without 100 μg/mL TiO2 NPs; H2O2 100 μM
nNHDF cells [6] = assay: CellTiter-Blue (CTB) assay, metabolic activity; conditions: 24 h
[7] = read-out: EC50, metabolic activity, control, nNHDF cells, absence of TiO2 NPs (control)

| SMILES | EC50 (nNHDF cells [1]) [µM] | quadrant number lower left (viable cells), PI / Annexin V plot (nNHDF cells [2]) | quadrant number lower right, PI / Annexin V plot (nNHDF cells [2]) | quadrant number upper left, PI / Annexin V plot (nNHDF cells [2]) | quadrant number upper right, PI / Annexin V plot (nNHDF cells [2]) | # of particles (TiO2 NPs detectable) [3] | particle diameter of TiO2 NPs, D50 [3] [nm] | particle diameter of TiO2 NPs, mean [3] [nm] | particle diameter of TiO2 NPs, mode [3] [nm] | DCFDA signal (ROS) (nNHDF cells [5]) | also measured |
| --- | --- | --- | --- | --- | --- | --- | --- | --- | --- | --- | --- |
| CCCCOC(=O)c1ccc(O)cc1 [BP, butyl parabene] | 690 ± 420 | 92.9 | 3.13 | 2.57 | 1.38 | 748 ± 137 × 10^6 | 122 ± 12 | 136 ± 18 | 111 ± 19 | – | amount of viable cells (nNHDF cells [2]): 79.8% |
| CCOC(=O)c1ccc(O)cc1 [EP, ethyl parabene] | 3540 ± 860 | 90.0 | 6.57 | 1.97 | 1.47 | 764 ± 92 × 10^6 | 122 ± 2 | 132 ± 5 | 105 ± 8 | – | – |
| OO [H2O2, Hydrogen peroxide, reference compound] | – | – | – | – | – | – | – | – | – | slight but significant increase in the DCFDA signal | total cellular glutathione content (nNHDF cells [4]): lowered significantly |
| O=C1C=C(O)C(=O)c2ccccc21 [HNQ, 2-hydroxy-1,4-naphtoquinone] | – | 89.5 | 4.56 | 3.31 | 2.61 | 498 ± 380 × 10^6 | 141 ± 20 | 154 ± 14 | 117 ± 18 | decreased the amount of detectable ROS significantly | – |
| CC(C=O)Cc1ccc(C(C)(C)C)cc1 (stereo not shown) [Lilial, 3-(4-tert-butylphenyl)-2-methylpropanal] | – | – | – | – | – | 552 ± 248 × 10^6 | 127 ± 6 | 136 ± 5 | 117 ± 11 | – | EC50 (nNHDF cells [1]; Homo sapiens): 270 ± 70 µM; quadrant number lower left (viable cells), PI / Annexin V plot (nNHDF cells [2]; human, 24 h): 94.2; quadrant number lower right, PI / Annexin V plot (nNHDF cells [2]; human, 24 h): 1.60; quadrant number upper left, PI / Annexin V plot (nNHDF cells [2]; human, 24 h): 3.26; quadrant number upper right, PI / Annexin V plot (nNHDF cells [2]; human, 24 h): 0.94; EC50 (nNHDF cells [6]; Homo sapiens, read-out: EC50, metabolic activity, control): 230 ± 50 µM |
| COC(=O)c1ccc(O)cc1 [MP, methyl parabene] | – | – | 6.31 | 2.69 | 1.42 | 927 ± 146 × 10^6 | 122 ± 1 | 131 ± 2 | 106 ± 5 | – | – |
| CCCOC(=O)c1ccc(O)cc1 [PP, propyl parabene] | 1270 ± 340 | 91.2 | 4.55 | 2.46 | 1.77 | 612 ± 210 × 10^6 | 119 ± 2 | 126 ± 1 | 103 ± 5 | – | total cellular glutathione content (nNHDF cells [4]): significantly lower total cellular glutathione content; EC50 (nNHDF cells [6]; [7]): 1040 ± 20 µM |
| Nc1ccc(N)cc1 [PPD, para-phenylenediamine] | 1360 ± 50 | – | – | – | – | 1833 ± 93 × 10^6 | 129 ± 17 | 138 ± 19 | 122 ± 14 | decreased the amount of detectable ROS significantly | PI fluorescence (necrosis) compared to the control (nNHDF cells [2]; 24 h, concentrations of Table 1, together with 100 μg/mL TiO2 NPs): significant difference in PI fluorescence; EC50 (nNHDF cells [6]; read-out: EC50 (cytotoxicity, end point not given), nNHDF cells, discussion): ~1000 µM; EC50 (nNHDF cells [6]; [7]): 1190 ± 170 µM |
